What all share (format): biochemical
For one experiment, the target named is PIM-1 (Homo sapiens, UniProt P11309). As to the kind of experiment: Enzyme PIM-1 Assay ([33P]ATP incorporation into PIM2tide, filter plate). The conditions noted are these: averaged IC50; 35 μM ATP, 7.5 μM PIM2tide, 0.25 nM PIM-1, 60 min at 22° C. A digest of the protocol:
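Ten-point, 3-fold dilution series (10 μM top, 2% DMSO final) tested for inhibition of 33P transfer from 35 μM ATP to 7.5 μM PIM2tide by 0.25 nM PIM-1. Reaction 60 min, 22 °C, pH 7.4 MOPS/MgCl2 buffer; phosphocellulose capture, scintillation counting, IC50 where fitted POC equals 50.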

Experiment [1] addresses T1, GST-tagged recombinant full-length human Pim-2 (Homo sapiens, UniProt Q9P1W9).
T1 construct: GST-tagged recombinant full-length human Pim-2; GST
As to the kind of experiment: PIM-2 Assay (as Example A). The conditions noted are these: averaged IC50; 4 μM ATP, 1.0 μM PIM2tide, 1.5 nM Pim-2. A digest of the protocol: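 IC50 was derived by 4-parameter logistic fitting of percent-of-control data over a 10-point, 3-fold series (highest 10 μM, 2% DMSO). Reactions held 1.5 nM GST-Pim-2 (full-length, human), 4 μM [γ-33P]ATP and 1.0 μM PIM2tide for 60 min at 22 °C, pH 7.4; 33P-peptide captured on P81 filters.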

Another experiment concerns the target recombinant rat PIM-3 (Rattus norvegicus, UniProt O70444). As to the kind of experiment: PIM-3 Assay (as Example A). To be noted: averaged IC50; 30 μM ATP, 3.75 μM PIM2tide, 0.5 nM PIM-3. An outline of the steps:
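33P incorporation from 30 μM [γ-33P]ATP into 3.75 μM PIM2tide by 0.5 nM rat PIM-3, 60 min at 22 °C in pH 7.4 MOPS buffer, read by P81 filter capture and scintillation counting. Compounds tested in 3-fold dilutions up to 10 μM final, 2% DMSO; percent-of-control data fitted by 4-parameter logistic for IC50.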

Where a name gives a salt, the structure may show the parent alone. Some results are limits rather than exact numbers.

T1 sequence (Q9P1W9 whole entry): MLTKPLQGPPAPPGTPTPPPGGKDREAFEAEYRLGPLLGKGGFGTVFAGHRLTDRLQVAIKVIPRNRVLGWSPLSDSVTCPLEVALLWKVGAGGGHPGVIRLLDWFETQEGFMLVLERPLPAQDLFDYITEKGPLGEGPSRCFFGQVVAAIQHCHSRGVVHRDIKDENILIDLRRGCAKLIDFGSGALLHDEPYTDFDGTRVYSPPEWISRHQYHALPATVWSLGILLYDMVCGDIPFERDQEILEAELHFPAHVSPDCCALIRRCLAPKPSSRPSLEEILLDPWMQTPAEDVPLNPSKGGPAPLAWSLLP
Chain of PIM-1 (P11309 whole entry, species assumed): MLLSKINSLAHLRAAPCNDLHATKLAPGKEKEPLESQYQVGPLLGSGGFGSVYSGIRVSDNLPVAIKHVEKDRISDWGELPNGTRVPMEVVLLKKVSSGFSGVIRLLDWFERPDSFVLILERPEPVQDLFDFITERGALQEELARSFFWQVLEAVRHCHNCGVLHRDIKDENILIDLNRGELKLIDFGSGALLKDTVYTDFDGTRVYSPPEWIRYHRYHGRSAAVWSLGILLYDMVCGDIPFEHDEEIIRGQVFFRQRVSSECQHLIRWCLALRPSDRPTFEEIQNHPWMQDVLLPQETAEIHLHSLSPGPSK

For the compound `CC(C)(O)COc1cccc2ccc(-c3nnc4ccc([C@@H](N5CC[C@@](C)(N)C5)C(F)(F)F)cn34)nc12` [Example 272, 1-(2-(6-((R)-1-((R)-3-amino-3-methylpyrrolidin-1-yl)-2,2,2-trifluoroethyl)-[1,2,4]triazolo[4,3-a]pyridin-3-yl)quinolin-8-yloxy)-2-methylpropan-2-ol dihydrochloride], the values for the IC50 (on PIM-1; in experiment [1]; on recombinant rat PIM-3) were 0.24 nM, 124 nM and 0.5 nM, respectively.
For `COc1ccc2ccc(-c3nnc4ccc([C@H](N5CC[C@](C)(N)C5)C(F)(F)F)cn34)nc2c1` [Example 312, (S)-3-methyl-1-((S)-2,2,2-trifluoro-1-(3-(7-methoxyquinolin-2-yl)-[1,2,4]triazolo[4,3-a]pyridin-6-yl)ethyl)pyrrolidin-3-amine] the same measures were 0.24 nM, 170 nM and 0.8 nM.
For `C[C@@]1(N)CCN([C@H](c2ccc3nnc(-c4ccc5cccc(C6CC6)c5n4)n3c2)C(F)(F)F)C1` [Example 95, (R)-1-((R)-1-(3-(8-cyclopropylquinolin-2-yl)-[1,2,4]triazolo[4,3-a]pyridin-6-yl)-2,2,2-trifluoroethyl)-3-methylpyrrolidin-3-amine dihydrochloride], in that order: 0.19 nM, 79 nM and 3 nM.
Consider `Cc1c(OC(C)C)ccc2ccc(-c3nnc4ccc([C@@H](N5CC[C@H](N)C5)C(F)(F)F)cn34)nc12` [Example 116, (S)-1-((R)-2,2,2-trifluoro-1-(3-(7-isopropoxy-8-methylquinolin-2-yl)-[1,2,4]triazolo[4,3-a]pyridin-6-yl)ethyl)pyrrolidin-3-amine hydrochloride], for which the values for the IC50 (against PIM-1; in experiment [1]; at recombinant rat PIM-3) were 0.24 nM, 76 nM and 1.8 nM, respectively.
With `CN[C@H]1CCN(C(c2ccc3nnc(-c4ccc5cccc(OCC6CC6)c5n4)n3c2)C(F)(F)F)C1` (stereo partly drawn) [Example 20, (3S)-1-(1-(3-(8-(Cyclopropylmethoxy)quinolin-2-yl)-[1,2,4]triazolo[4,3-a]pyridin-6-yl)-2,2,2-trifluoroethyl)-N-methylpyrrolidin-3-amine dihydrochloride], the values for the IC50 (against PIM-1; in experiment [1]; on recombinant rat PIM-3) were 0.35 nM, 131 nM and 3.3 nM, respectively.
As to `Cc1cc(F)cc2ccc(-c3nnc4ccc([C@@H](N5CC[C@H](N)C5)C(F)(F)F)cn34)nc12` [Example 184, (S)-1-((R)-2,2,2-trifluoro-1-(3-(6-fluoro-8-methylquinolin-2-yl)-[1,2,4]triazolo[4,3-a]pyridin-6-yl)ethyl)pyrrolidin-3-amine dihydrochloride], the IC50 was 0.41 nM at PIM-1, above 100 nM in experiment [1] and 1.5 nM at recombinant rat PIM-3.
`CO[C@@H](C)COc1cc2nc(-c3nnc4ccc([C@H](N5CC[C@](C)(N)C5)C(F)(F)F)cn34)ccc2cc1F` [Example 322, (S)-3-methyl-1-((S)-2,2,2-trifluoro-1-(3-(6-fluoro-7-((S)-2-methoxypropoxy)quinolin-2-yl)-[1,2,4]triazolo[4,3-a]pyridin-6-yl)ethyl)pyrrolidin-3-amine di-hydrochloride]: the IC50 against PIM-1 turned out to be 0.08 nM; in experiment [1], 22.7 nM; on recombinant rat PIM-3, 0.1 nM.
For `CC(C)Oc1cccc2ccc(-c3nnc4ccc([C@@H](N5CC[C@](N)(CF)C5)C(F)(F)F)cn34)nc12` (single isomer, unassigned) [Example 155, dihydrochloride], in that order: 0.34 nM, 45 nM and 1.3 nM.
On to `Cn1cc(-c2ccc3ccc(-c4nnc5ccc([C@H](N6CCC(C)(O)C6)C(F)(F)F)cn45)nc3c2)cn1` (single isomer, unassigned; diastereomer 2) [Example 201, hydrochloride], for which the IC50 at PIM-1 is 43.5 nM; in experiment [1] it was above 1000 nM; at recombinant rat PIM-3 it was 42 nM.
Turning to `C[C@H](c1ccc2nnc(-c3ccc4cccc(C(C)(C)C)c4n3)n2c1)N1CC[C@H](N)C1` [Example 307, (S)-1-((R)-1-(3-(8-tert-butylquinolin-2-yl)-[1,2,4]triazolo[4,3-a]pyridin-6-yl)ethyl)pyrrolidin-3-amine trihydrochloride], the IC50 stood at 1.64 nM against PIM-1, 62.4 nM in experiment [1] and 6.9 nM at recombinant rat PIM-3.
For `CCOCCOc1ccc2ccc(-c3nnc4ccc([C@H](N5CC[C@](C)(N)C5)C(F)(F)F)cn34)nc2c1` [Example 306, (S)-1-((S)-1-(3-(7-(2-ethoxyethoxy)quinolin-2-yl)-[1,2,4]triazolo[4,3-a]pyridin-6-yl)-2,2,2-trifluoroethyl)-3-methylpyrrolidin-3-amine] the same measures were 0.28 nM, 281 nM and 0.7 nM.
With `CCNC(=O)Cc1cccc2ccc(-c3nnc4ccc([C@@H](N5CC[C@H](N)C5)C(F)(F)F)cn34)nc12` [Example 235, 2-(2-(6-((R)-1-((S)-3-aminopyrrolidin-1-yl)-2,2,2-trifluoroethyl)-[1,2,4]triazolo[4,3-a]pyridin-3-yl)quinolin-8-yl)-N-ethylacetamide dihydrochloride], the half-inhibitory concentration (IC50) was 7.81 nM on PIM-1, above 1000 nM in experiment [1] and 33 nM on recombinant rat PIM-3.
Consider `Cc1cc(-c2cc3nc(-c4nnc5ccc([C@@H](N6CC[C@H](N)C6)C(F)(F)F)cn45)ccc3cc2F)n(C)n1` [Example 204, (3 S)-1-((1R)-1-(3-(7-(1,3-dimethyl-1H-pyrazol-5-yl)-6-fluoroquinolin-2-yl)-[1,2,4]triazolo[4,3-a]pyridin-6-yl)-2,2,2-trifluoroethyl)pyrrolidin-3-amine dihydrochloride], for which the IC50 on PIM-1 is 0.48 nM; in experiment [1], above 1000 nM; at recombinant rat PIM-3, 3 nM.
For `CO[C@H](C)COc1ccc2cc(F)c(-c3nnc4ccc([C@@H](N5CC[C@H](N)C5)C(F)(F)F)cn34)nc2c1` [Example 328, (S)-1-((R)-2,2,2-trifluoro-1-(3-(3-fluoro-7-((R)-2-methoxypropoxy)quinolin-2-yl)-[1,2,4]triazolo[4,3-a]pyridin-6-yl)ethyl)pyrrolidin-3-amine] the same measures were 0.33 nM, 748 nM and 1.39 nM.
As to `NC[C@@H]1CCN(C(c2ccc3nnc(-c4ccc5cccc(OCC6CC6)c5n4)n3c2)C(F)(F)F)C1` (stereo partly drawn) [Example 24, ((3S)-1-(1-(3-(8-(cyclopropylmethoxy)quinolin-2-yl)-[1,2,4]triazolo[4,3-a]pyridin-6-yl)-2,2,2-trifluoroethyl)pyrrolidin-3-yl)methanamine dihydrochloride], the IC50 was determined as 2.01 nM at PIM-1, 935 nM in experiment [1] and 76 nM on recombinant rat PIM-3.
For `FC(F)(F)[C@@H](c1ccc2nnc(-c3ccc4ccc(Cl)cc4n3)n2c1)N1C[C@@H]2C[C@H]1CN2` [Example 64, 2-(6-((R)-1-((1S,4S)-2,5-diazabicyclo[2.2.1]heptan-2-yl)-2,2,2-trifluoroethyl)-[1,2,4]triazolo[4,3-a]pyridin-3-yl)-7-chloro quinoline dihydrochloride] the same measures were 9.33 nM, above 100 nM and 14 nM.
For `N[C@H]1CCN([C@H](c2ccc3nnc(-c4ccc5cc(F)c(C6CC6)cc5n4)n3c2)C(F)(F)F)C1` [Example 176, (S)-1-((R)-1-(3-(7-cyclopropyl-6-fluoroquinolin-2-yl)-[1,2,4]triazolo[4,3-a]pyridin-6-yl)-2,2,2-trifluoroethyl)pyrrolidin-3-amine dihydrochloride], the IC50 on PIM-1 was determined as 0.17 nM; in experiment [1], 92 nM; at recombinant rat PIM-3, 2.7 nM.
For `N[C@H]1CCN([C@H](c2ccc3nnc(-c4ccc5cccc(OC(F)(F)F)c5n4)n3c2)C(F)(F)F)C1` [Example 40, (S)-1-((R)-2,2,2-trifluoro-1-(3-(8-(trifluoromethoxy)quinolin-2-yl)-[1,2,4]triazolo[4,3-a]pyridin-6-yl)ethyl)pyrrolidin-3-amine dihydrochloride], in that order: 0.21 nM, 78 nM and 4.7 nM.
For `CCNC(=O)c1ccc2ccc(-c3nnc4ccc([C@@H](N5CC[C@H](N)C5)C(F)(F)F)cn34)nc2c1` [Example 38, 2-(6-((R)-1-((S)-3-aminopyrrolidin-1-yl)-2,2,2-trifluoroethyl)-[1,2,4]triazolo[4,3-a]pyridin-3-yl)-N-ethylquinoline-7-carboxamide dihydrochloride], the concentration for half-maximal inhibition (IC50) is 0.23 nM on PIM-1, 56 nM in experiment [1] and 0.5 nM on recombinant rat PIM-3.
For `CCOc1cc2nc(-c3nnc4ccc([C@@H](N5CC[C@H](CN)C5)C(F)(F)F)cn34)ccc2cc1F` [Example 280, ((R)-1-((R)-1-(3-(7-ethoxy-6-fluoroquinolin-2-yl)-[1,2,4]triazolo[4,3-a]pyridin-6-yl)-2,2,2-trifluoroethyl)pyrrolidin-3-yl)methanamine hydrochloride], in that order: 0.62 nM, 418 nM and 2.5 nM.

These data come from patent US8889704B2 (Array BioPharma Inc., priority 2011, dated 2014).
